Source: patent publication US12522594B2, “2-heteroaryl-3-oxo-2,3-dihydropyridazine-4-carboxamides for the treatment of cancer” (Deutsches Krebsforschungszentrum, priority 2017, dated 2026)

Columns and labels:
AHR [1] = target: T1, AHR (Homo sapiens, UniProt P35869); test: In vitro assay 1: antagonism in human cell line (transactivation assay, U87 cells prestimulated with kynurenic acid, DRE firefly luciferase reporter); assay type: cell-based; design: host or cells: U87 glioblastoma cells, stably transfected with DRE firefly luciferase and renilla reporter constructs; conditions: 150 uM kynurenic acid, 20 hours, read-out: Assay 1: AHR-luc Hum Antagonism IC50
T1 sequence (P35869 11-848): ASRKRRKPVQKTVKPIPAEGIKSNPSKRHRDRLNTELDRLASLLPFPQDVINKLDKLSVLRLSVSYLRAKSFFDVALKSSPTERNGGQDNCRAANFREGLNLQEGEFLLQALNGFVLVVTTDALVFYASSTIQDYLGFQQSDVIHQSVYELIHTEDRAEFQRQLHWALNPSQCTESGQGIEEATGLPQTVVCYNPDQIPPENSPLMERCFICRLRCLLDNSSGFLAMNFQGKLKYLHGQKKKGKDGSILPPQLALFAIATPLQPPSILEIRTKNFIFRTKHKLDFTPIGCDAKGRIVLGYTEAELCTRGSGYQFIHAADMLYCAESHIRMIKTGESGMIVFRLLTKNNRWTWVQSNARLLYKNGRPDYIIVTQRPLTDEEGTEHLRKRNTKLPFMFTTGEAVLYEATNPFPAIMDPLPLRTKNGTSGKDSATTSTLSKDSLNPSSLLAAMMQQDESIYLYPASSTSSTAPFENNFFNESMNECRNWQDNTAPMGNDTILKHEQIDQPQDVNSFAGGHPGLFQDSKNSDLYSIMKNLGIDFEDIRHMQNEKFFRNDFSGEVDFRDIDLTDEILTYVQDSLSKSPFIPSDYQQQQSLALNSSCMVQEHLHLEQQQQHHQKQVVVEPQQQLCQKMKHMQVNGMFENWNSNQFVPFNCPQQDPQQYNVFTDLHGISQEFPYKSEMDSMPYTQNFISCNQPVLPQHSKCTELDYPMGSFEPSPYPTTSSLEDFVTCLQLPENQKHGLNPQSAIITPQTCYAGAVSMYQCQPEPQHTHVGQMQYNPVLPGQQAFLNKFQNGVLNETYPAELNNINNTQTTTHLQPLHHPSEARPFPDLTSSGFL
Procedure, shortened: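 U87 glioblastoma cells with endogenous AHR, stably carrying a DRE-driven firefly luciferase reporter and a constitutive renilla reporter. Cells prestimulated with the AHR agonist kynurenic acid before compound addition; data normalized to positive and negative controls.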

AHR [2] = target: T1, AHR; test: In vitro assay 2: agonism in human cell line (transactivation assay, U87 cells, DRE firefly luciferase reporter); assay type: cell-based; design: host or cells: U87 glioblastoma cells, stably transfected with DRE firefly luciferase and renilla reporter constructs; conditions: no kynurenic acid, 20 hours, read-out: Assay 2: AHR-luc Hum Agonism IC50
Procedure, shortened: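 U87 glioblastoma cells with endogenous AHR, stably carrying DRE-driven firefly luciferase and constitutive renilla reporters. 300 uM kynurenic acid served as positive activation control; data normalized to positive and negative controls.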

For O=C(N[C@H]1CCCC(F)(F)[C@@H]1O)c1cc(-c2ccc(OC(F)(F)F)cc2)nn(-c2cccnc2)c1=O (single isomer, unassigned; enantiomer 2) [Example 142, N-[(trans)-3,3-Difluoro-2-hydroxycyclohexyl]-3-oxo-2-(pyridin-3-yl)-6-[4-(trifluoromethoxy)phenyl]-2,3-dihydropyridazine-4-carboxamide, Enantiomer 2], the IC50 (AHR [1]) was 8.32 nM and the IC50 (AHR [2]) was over 20000 nM.

In the case of O=C(N[C@H]1CCCC(F)(F)[C@@H]1O)c1cc(-c2ccc(Cl)cc2)nn(-c2cccnc2)c1=O (single isomer, unassigned; enantiomer 2) [Example 145, 6-(4-Chlorophenyl)-N-[(trans)-3,3-difluoro-2-hydroxycyclohexyl]-3-oxo-2-(pyridin-3-yl)-2,3-dihydropyridazine-4-carboxamide, Enantiomer 2], the IC50 (AHR [1]) is reported as 6.9 nM and the IC50 (AHR [2]) is reported as over 20000 nM.

O=C(N[C@H]1COC[C@@H]1O)c1cc(-c2ccc(Cl)cc2)nn(-c2cncc(F)c2)c1=O (single isomer, unassigned; enantiomer 2) [Example 156, 6-(4-Chlorophenyl)-2-(5-fluoropyridin-3-yl)-N-[(trans)-4-hydroxytetrahydrofuran-3-yl]-3-oxo-2,3-dihydropyridazine-4-carboxamide, Enantiomer 2] was tested, and the IC50 (AHR [1]) was 25 nM and the IC50 (AHR [2]) was over 20000 nM.

For CCC(CO)NC(=O)c1cc(-c2ccc(C)cc2)nn(-c2cnn(C)c2)c1=O (stereo not shown) [Example 4, N-(1-Hydroxybutan-2-yl)-6-(4-methylphenyl)-2-(1-methyl-1H-pyrazol-4-yl)-3-oxo-2,3-dihydropyridazine-4-carboxamide], the IC50 (AHR [1]) was 9.52 nM and the IC50 (AHR [2]) was over 20000 nM.

For Cc1ccc(-c2cc(C(=O)N[C@H](C)CO)c(=O)n(-c3cnn(C)c3)n2)cc1 [Example 9, N-[(2R)-1-Hydroxypropan-2-yl]-6-(4-methylphenyl)-2-(1-methyl-1H-pyrazol-4-yl)-3-oxo-2,3-dihydropyridazine-4-carboxamide], the IC50 (AHR [1]) was 164 nM and the IC50 (AHR [2]) was over 20000 nM.

With Cn1cc(-n2nc(-c3ccc(Cl)cc3)cc(C(=O)NC[C@@H](O)CO)c2=O)cn1 [Example 28, 6-(4-Chlorophenyl)-N-[(2R)-2,3-dihydroxypropyl]-2-(1-methyl-1H-pyrazol-4-yl)-3-oxo-2,3-dihydropyridazine-4-carboxamide] the IC50 (AHR [1]) was 293 nM and the IC50 (AHR [2]) was over 20000 nM.

COC[C@@H](CO)NC(=O)c1cc(-c2ccc(Cl)cc2)nn(-c2cnn(C)c2)c1=O [Example 30, 6-(4-Chlorophenyl)-N-[(2R)-1-hydroxy-3-methoxypropan-2-yl]-2-(1-methyl-1H-pyrazol-4-yl)-3-oxo-2,3-dihydropyridazine-4-carboxamide] was tested, and the IC50 (AHR [1]) was 60.8 nM and the IC50 (AHR [2]) was over 20000 nM.

Work on Cn1cc(-n2nc(-c3ccc(Cl)cc3)cc(C(=O)NC(CO)CO)c2=O)cn1 [Example 31, 6-(4-Chlorophenyl)-N-(1,3-dihydroxypropan-2-yl)-2-(1-methyl-1H-pyrazol-4-yl)-3-oxo-2,3-dihydropyridazine-4-carboxamide] yielded an IC50 (AHR [1]) of 244 nM and an IC50 (AHR [2]) of over 20000 nM.

With Cn1cc(-n2nc(-c3ccc(Cl)cc3)cc(C(=O)N[C@@H](CO)C(F)(F)F)c2=O)cn1 [Example 34, (−)-6-(4-Chlorophenyl)-2-(1-methyl-1H-pyrazol-4-yl)-3-oxo-N-[(2S)-1,1,1-trifluoro-3-hydroxypropan-2-yl]-2,3-dihydropyridazine-4-carboxamide] the IC50 (AHR [1]) was 130 nM and the IC50 (AHR [2]) was over 20000 nM.

Work on O=C(NC[C@H](O)C(F)(F)F)c1cc(-c2ccc(Cl)cc2)nn(-c2cnn(C3CCC3)c2)c1=O [Example 40, 6-(4-Chlorophenyl)-2-(1-cyclobutyl-1H-pyrazol-4-yl)-3-oxo-N-[(2S)-3,3,3-trifluoro-2-hydroxypropyl]-2,3-dihydropyridazine-4-carboxamide] yielded an IC50 (AHR [1]) of 1100 nM and an IC50 (AHR [2]) of over 20000 nM.

Work on O=C(N[C@H](CO)C(F)(F)F)c1cc(-c2ccc(Cl)cc2)nn(-c2cnn(C3CCC3)c2)c1=O [Example 41, 6-(4-Chlorophenyl)-2-(1-cyclobutyl-1H-pyrazol-4-yl)-3-oxo-N-[(2R)-1,1,1-trifluoro-3-hydroxypropan-2-yl]-2,3-dihydropyridazine-4-carboxamide] yielded an IC50 (AHR [1]) of 1650 nM and an IC50 (AHR [2]) of over 20000 nM.

In the case of C[C@@H](CO)NC(=O)c1cc(-c2ccc(Cl)cc2)nn(-c2cnn(C3CCC3)c2)c1=O [Example 42, 6-(4-Chlorophenyl)-2-(1-cyclobutyl-1H-pyrazol-4-yl)-N-[(2S)-1-hydroxypropan-2-yl]-3-oxo-2,3-dihydropyridazine-4-carboxamide], the IC50 (AHR [1]) is reported as 1570 nM and the IC50 (AHR [2]) is reported as over 20000 nM.

Molecule Cn1cc(-n2nc(-c3ccc(Cl)cc3)cc(C(=O)N[C@H]3CCCC[C@H]3O)c2=O)cn1 [Example 48, 6-(4-Chlorophenyl)-N-[(1S,2R)-2-hydroxycyclohexyl]-2-(1-methyl-1H-pyrazol-4-yl)-3-oxo-2,3-dihydropyridazine-4-carboxamide] has an IC50 (AHR [1]) of 2.49 nM and an IC50 (AHR [2]) of over 20000 nM.

Cn1cc(-n2nc(-c3ccc(C(F)F)nc3)cc(C(=O)N[C@H]3CCCC[C@H]3O)c2=O)cn1 [Example 54, 6-[6-(Difluoromethyl)pyridin-3-yl]-N-[(1S,2R)-2-hydroxycyclohexyl]-2-(1-methyl-1H-pyrazol-4-yl)-3-oxo-2,3-dihydropyridazine-4-carboxamide] gave an IC50 (AHR [1]) of 14.3 nM and an IC50 (AHR [2]) of over 20000 nM.

With Cn1cc(-n2nc(-c3ccc(OC(F)(F)F)cc3)cc(C(=O)NCC(C)(C)O)c2=O)cn1 [Example 59, N-(2-Hydroxy-2-methylpropyl)-2-(1-methyl-1H-pyrazol-4-yl)-3-oxo-6-[4-(trifluoromethoxy)phenyl]-2,3-dihydropyridazine-4-carboxamide] the IC50 (AHR [1]) was 20 nM and the IC50 (AHR [2]) was over 20000 nM.

Molecule C[C@@H](CO)NC(=O)c1cc(-c2ccc(C(F)F)nc2)nn(-c2cnn(C)c2)c1=O [Example 66, 6-[6-(Difluoromethyl)pyridin-3-yl]-N-[(2S)-1-hydroxypropan-2-yl]-2-(1-methyl-1H-pyrazol-4-yl)-3-oxo-2,3-dihydropyridazine-4-carboxamide] has an IC50 (AHR [1]) of 259 nM and an IC50 (AHR [2]) of over 20000 nM.

Cn1cc(-n2nc(-c3ccc(C(F)(F)F)cc3)cc(C(=O)NCC(C)(C)O)c2=O)cn1 [Example 67, N-(2-Hydroxy-2-methylpropyl)-2-(1-methyl-1H-pyrazol-4-yl)-3-oxo-6-[4-(trifluoromethyl)phenyl]-2,3-dihydropyridazine-4-carboxamide] showed an IC50 (AHR [1]) of 4.3 nM and an IC50 (AHR [2]) of over 20000 nM.

In the case of O=C(NC(CO)CO)c1cc(-c2ccc(Cl)cc2)nn(-c2cccnc2)c1=O [Example 70, 6-(4-Chlorophenyl)-N-(1,3-dihydroxypropan-2-yl)-3-oxo-2-(pyridin-3-yl)-2,3-dihydropyridazine-4-carboxamide], the IC50 (AHR [1]) is reported as 159 nM and the IC50 (AHR [2]) is reported as over 20000 nM.

In the case of COC[C@H](CO)NC(=O)c1cc(-c2ccc(Cl)cc2)nn(-c2cccnc2)c1=O [Example 74, (+)-6-(4-Chlorophenyl)-N-[(2S)-1-hydroxy-3-methoxypropan-2-yl]-3-oxo-2-(pyridin-3-yl)-2,3-dihydropyridazine-4-carboxamide], the IC50 (AHR [1]) is reported as 152 nM and the IC50 (AHR [2]) is reported as over 20000 nM.

COC[C@@H](CO)NC(=O)c1cc(-c2ccc(Cl)cc2)nn(-c2cccnc2)c1=O [Example 75, (−)-6-(4-Chlorophenyl)-N-[(2R)-1-hydroxy-3-methoxypropan-2-yl]-3-oxo-2-(pyridin-3-yl)-2,3-dihydropyridazine-4-carboxamide] was tested, and the IC50 (AHR [1]) was 83.4 nM and the IC50 (AHR [2]) was over 20000 nM.

For C[C@H](CO)NC(=O)c1cc(-c2ccc(Cl)cc2)nn(-c2cncc(F)c2)c1=O [Example 81, 6-(4-Chlorophenyl)-2-(5-fluoropyridin-3-yl)-N-[(2R)-1-hydroxypropan-2-yl]-3-oxo-2,3-dihydropyridazine-4-carboxamide], the IC50 (AHR [1]) was 106 nM and the IC50 (AHR [2]) was over 20000 nM.

Molecule CC(C)[C@@H](CO)NC(=O)c1cc(-c2ccc(Cl)cc2)nn(-c2cncc(F)c2)c1=O [Example 83, 6-(4-Chlorophenyl)-2-(5-fluoropyridin-3-yl)-N-[(2S)-1-hydroxy-3-methylbutan-2-yl]-3-oxo-2,3-dihydropyridazine-4-carboxamide] has an IC50 (AHR [1]) of 4.61 nM and an IC50 (AHR [2]) of over 20000 nM.

Molecule O=C(NC(CO)CO)c1cc(-c2ccc(Cl)cc2)nn(-c2cncc(F)c2)c1=O [Example 84, 6-(4-Chlorophenyl)-N-(1,3-dihydroxypropan-2-yl)-2-(5-fluoropyridin-3-yl)-3-oxo-2,3-dihydropyridazine-4-carboxamide] has an IC50 (AHR [1]) of 163 nM and an IC50 (AHR [2]) of over 20000 nM.
